According to US6355443B1, “4-(4-hydroxystyryl) pyridine-containing substrates for an analyte dependent enzyme activation system” (priority 1999, dated 2002):

Legend:
[1] = molecular target: T1, Horseradish peroxidase (HRP) conjugated wheat germ agglutinin (Armoracia rusticana, UniProt P00433); experiment: Sensitive HRP localization using a 4-(4-hydroxystyryl) pyridine containing compound; conditions: sections of mouse intestine; for fluorescence labeling of tissue sections after HRP-catalyzed deposition: HRP-conjugated wheat germ agglutinin 0.5 μg/ml, substrate 100 μg/ml, 10 min, 360 nm excitation/>400 nm emission
T1 construct: purchased Sigma; St. Louis, Mo
T1 sequence (P00433 31-338 limits assumed): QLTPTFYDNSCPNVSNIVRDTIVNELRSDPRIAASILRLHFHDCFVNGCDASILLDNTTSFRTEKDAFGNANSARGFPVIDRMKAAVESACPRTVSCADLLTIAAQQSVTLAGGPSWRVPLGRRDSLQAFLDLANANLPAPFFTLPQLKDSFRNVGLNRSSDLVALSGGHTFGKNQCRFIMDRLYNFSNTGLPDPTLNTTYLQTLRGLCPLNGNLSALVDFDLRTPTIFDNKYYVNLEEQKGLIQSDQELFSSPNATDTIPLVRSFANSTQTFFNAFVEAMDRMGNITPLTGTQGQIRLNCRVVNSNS
Method: Sections of paraffin-embedded mouse intestine were deparaffinized and non-specific binding sites blocked by treatment for thirty minutes in PBS-blocking buffer (PBS-BB; 0.1M phosphate buffered saline, pH 7.2; 1.0% bovine serum albumin, 0.2% non-fat powdered milk, and 0.3% Triton X-100). Horseradish peroxidase (HRP) conjugated wheat germ agglutinin (Sigma; St. Louis, Mo.) at a concentration of 0.5 μg/ml in PBS-BB was incubated on sections for one hour at room temperature. Control sections were incubated in PBS-BB alone. Sections were then washed in PBS (three X for five minutes each wash) and reacted for ten minutes at room temperature in a solution containing 4-(4-hydroxystyryl) pyridinium propylsulfonate (HPPS) (Molecular Biosciences; Boulder, Colo.) at 100 μg/ml in TSA Amplification Diluent, (NEN Life Science Products, Inc.; Boston, Mass.). Sections were then washed in PBS (three X for five minutes each wash), mounted in PBS:Glycerol (1:1) and coverslipped. Sections were viewed with a Zeiss Axioskop microscope equipped with epifluorescence and a filter set with excitation/emission characteristics of 360 nm peak excitation/>400 nm long pass emission. Photomicrographs were taken using a Zeiss MC100 camera system.

[2] = molecular target: T1, Horseradish peroxidase (HRP) conjugated wheat germ agglutinin; experiment: Stability of deposited fluorescent reaction product in aqueous vs non-aqueous mounting medium
Method: Sections of paraffin-embedded mouse intestine were deparaffinized and non-specific binding sites were blocked by treatment for thirty minutes in PBS-BB. HRP conjugated wheat germ agglutinin (Sigma), at a concentration of 0.5 μg/ml in PBS-BB, was incubated on sections for one hour at room temperature. Sections were then washed in PBS (three X for five minutes each wash) and were reacted for ten minutes at room temperature in a solution of 4-(4-hydroxystyryl) methylpyridinium tosylate (HMPT) (Molecular Biosciences) at 100 μg/ml in TSA Amplification Diluent (NEN Life Science Products, Inc.). Sections were then washed in PBS (three X for five minutes each wash) and either mounted in PBS:Glycerol (1:1) or dehydrated in graded ethanol solutions (0%, 70%, 95%, 100%, 100% three minutes each) and xylene (two X for three minutes each) mounted in Permount (a non-aqueous mounting medium; Fisher Scientific, Pittsburgh, Pa.) and coverslipped. The fluorescent signal intensity of slides mounted in aqueous (PBS:Glycerol) or non-aqueous (Permount) media was compared using a Zeiss Axioskop microscope equipped with epifluorescence and a 360 nm excitation/>400 nm emission filter set. Photomicrographs were taken using a Zeiss MC100 camera system and standard two second exposures.

Compound | concentration of conjugated wheat germ agglutinin used/required for wheat germ agglutinin localization [1] [µg/mL] | fluorescence labeling of tissue sections after HRP-catalyzed deposition [1] | fluorescence labeling of tissue sections after HRP-catalyzed deposition ([1]; listed as EPPS) | background signal / signal/noise ratio when mounted in non-aqueous media ([2]; Permount, non-aqueous) | localization of wheat germ agglutinin reactivity ([2]; aqueous and non-aqueous medium) | fluorescence in aqueous solution ([2]; section of mouse intestine, aqueous (FIG. 2A)) | reaction product fluorescence in non-aqueous medium ([2]; section of mouse intestine, non-aqueous (FIG. 2B)) | fluorescence intensity of reaction product in aqueous versus non-aqueous medium ([2]; sections of mouse intestine, PBS:Glycerol (aqueous) vs Permount (non-aqueous), two second exposures)
4-(4-hydroxystyryl) pyridinium propylsulfonate [HPPS] | 0.5 | intense HPPS fluorescence was localized to intestinal goblet cells | intense EPPS fluorescence localized to intestinal goblet cells | – | – | – | – | –
C[n+]1ccc(C=Cc2ccc(O)cc2)cc1.Cc1ccc(S(=O)(=O)[O-])cc1 [HMPT, 4-(4-hydroxystyryl) methylpyridinium tosylate] | – | – | – | background signal is reduced resulting in a better signal/noise ratio | Strong wheat germ agglutinin reactivity was localized to the intestinal epithelium under both conditions | bright fluorescence in aqueous solution | bright reaction product in a non-aqueous medium | equally bright in aqueous (FIG. 2A) and non-aqueous (FIG. 2B) medium
